For one experiment, the target named is T1, PI3Kγ (p120γ) (Homo sapiens, UniProt P48736).
T1 construct: purchased BPS Bioscience (San Diego, Calif.) or Millipore (Billerica, Mass.)
Put plainly: HTRF assay, potency against active PI3Kγ. The format is biochemical. Particulars: [ATP]=50 μM, [di-C8-PIP2]=10 μM, 30 min pre-incubation, read-out: PI3Kγ Inhibition. In short, it runs like this:
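End-point competition HTRF: enzyme (p110β/p85α 0.75 nM; p120γ 2-2.5 nM) with 10 μM di-C8-PIP2 pre-incubated 30 min at 25° C with compound, then 50 μM ATP added for 30-60 min at 25° C. Stopped, detected after 1 and 18 h; IC50 from variable-slope fit.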

The subject of a further experiment is HCT116 cells. Put plainly: HCT-116 cell proliferation assay. Type of experiment: cell-based. The settings on record: Homo sapiens, 72 hours, Cell Titer Glo. The procedure:
HCT-116 Cell Proliferation Assay
For the HCT116 Proliferation Assay, 3000 cells per well were plated in Growth Media (DMEM, 10% FBS, 1% 1-glutamine, 1% penicillin/streptomycin) in 96 well plates. The following day, compounds were added to duplicate wells at concentrations of 10 uM and 3-fold dilutions down to 40 nM. The plates were returned to the incubator for 72 hours and then the assays were developed using Cell Titer Glo (Promega, Madison, Wis.) according to manufacturer's instructions.

The next experiment deals with SKOV3 cells. Kind of experiment: GI50 determinations in SKOV3 cells. Type of experiment: cell-based. Particulars: Homo sapiens, SK-OV-3.
Experiment [1] addresses T2, PI3Kα (Homo sapiens, UniProt P42336). Put plainly: Mass spectrometry of intact PI3Kα (Millipore, 14-602), 1 hr incubation. Also noted: purchased Millipore 14-602. The format is binding. The settings on record: 10× fold excess of compound, MALDI. The procedure:
Mass Spectrometry for PI3K
Aliquots (5 μl) of the samples were diluted with 15 μl of 0.2% TFA prior to micro C4 ZipTipping directly onto the MALDI target using Sinapinic acid as the desorption matrix (10 mg/ml in 0.1% TFA:Acetonitrile 50:50).

The test system of the next experiment is PI3 kinase. Kind of experiment: Comparison of covalent and non-covalent inhibitors (Tables 18 and 19): prolonged PD, mechanism. Particulars: Table 19. The procedure: “A” designates ≦10 nM; “B” designates 10-100 nM; and “C” designates 100-1000 nM
Experiment [2] has as its target T2, PI3Kα. Kind of experiment: Trypsin digest and MS-MS analysis of compound-treated PI3Kα. The format is binding. Also noted: purchased Millipore 14-602. The settings on record: in-gel trypsin digest. The procedure: (§1) The PI3Kα protein band was then excised and subjected to an in-gel trypsin digest by reducing the protein with DTT, alkylating the thiols with iodoacetamide, and then incubating the protein gel band with trypsin overnight in a 37° C. water bath. The digest was then stopped by addition of trifluoroacetic acid, and peptides were removed from gel band by sonicating with increasing amounts of acetonitrile (0%, 30%, & 60%). Peptides were then purified using C18 ziptips, spotted on the MALDI target plate with α-cyano-4-hydroxycinnamic acid as the desorption matrix (10 mg/ml in 0.1% TFA:Acetonitrile 50:50), and analyzed in reflectron mode.
as §1, with “trifluoro acetic” for “trifluoroacetic”

The structures appear in SMILES notation. Entries after “also recorded” stand apart in the source; their conditions may differ. Bounds are passed on as bounds.

T2 sequence (P42336 whole entry): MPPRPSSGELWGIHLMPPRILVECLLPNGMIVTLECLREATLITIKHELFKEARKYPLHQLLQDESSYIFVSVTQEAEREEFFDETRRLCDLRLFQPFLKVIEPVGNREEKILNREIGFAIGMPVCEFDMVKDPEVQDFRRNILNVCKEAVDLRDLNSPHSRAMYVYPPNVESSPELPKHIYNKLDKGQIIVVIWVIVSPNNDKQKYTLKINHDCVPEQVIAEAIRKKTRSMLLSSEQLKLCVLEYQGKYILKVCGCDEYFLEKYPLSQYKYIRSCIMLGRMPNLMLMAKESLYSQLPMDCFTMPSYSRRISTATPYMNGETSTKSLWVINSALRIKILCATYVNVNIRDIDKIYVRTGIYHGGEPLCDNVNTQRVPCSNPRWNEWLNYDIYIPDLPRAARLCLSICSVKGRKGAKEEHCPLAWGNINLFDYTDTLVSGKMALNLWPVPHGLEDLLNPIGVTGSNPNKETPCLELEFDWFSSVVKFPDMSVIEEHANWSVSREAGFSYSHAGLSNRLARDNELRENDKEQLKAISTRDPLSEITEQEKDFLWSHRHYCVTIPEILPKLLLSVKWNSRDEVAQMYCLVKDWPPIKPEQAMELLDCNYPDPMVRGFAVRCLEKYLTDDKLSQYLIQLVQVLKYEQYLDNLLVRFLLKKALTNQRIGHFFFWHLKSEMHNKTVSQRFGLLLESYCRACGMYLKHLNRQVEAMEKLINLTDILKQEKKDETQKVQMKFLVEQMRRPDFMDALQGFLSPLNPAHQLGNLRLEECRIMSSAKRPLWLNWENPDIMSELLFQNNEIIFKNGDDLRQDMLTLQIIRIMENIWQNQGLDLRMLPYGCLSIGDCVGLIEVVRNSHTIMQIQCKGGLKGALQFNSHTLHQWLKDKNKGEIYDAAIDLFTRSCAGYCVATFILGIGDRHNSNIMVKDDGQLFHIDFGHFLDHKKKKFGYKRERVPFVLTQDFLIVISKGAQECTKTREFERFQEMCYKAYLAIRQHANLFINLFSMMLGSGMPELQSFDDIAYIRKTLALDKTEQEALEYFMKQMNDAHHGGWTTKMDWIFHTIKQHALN
T2 sequence (P27986 whole entry partner): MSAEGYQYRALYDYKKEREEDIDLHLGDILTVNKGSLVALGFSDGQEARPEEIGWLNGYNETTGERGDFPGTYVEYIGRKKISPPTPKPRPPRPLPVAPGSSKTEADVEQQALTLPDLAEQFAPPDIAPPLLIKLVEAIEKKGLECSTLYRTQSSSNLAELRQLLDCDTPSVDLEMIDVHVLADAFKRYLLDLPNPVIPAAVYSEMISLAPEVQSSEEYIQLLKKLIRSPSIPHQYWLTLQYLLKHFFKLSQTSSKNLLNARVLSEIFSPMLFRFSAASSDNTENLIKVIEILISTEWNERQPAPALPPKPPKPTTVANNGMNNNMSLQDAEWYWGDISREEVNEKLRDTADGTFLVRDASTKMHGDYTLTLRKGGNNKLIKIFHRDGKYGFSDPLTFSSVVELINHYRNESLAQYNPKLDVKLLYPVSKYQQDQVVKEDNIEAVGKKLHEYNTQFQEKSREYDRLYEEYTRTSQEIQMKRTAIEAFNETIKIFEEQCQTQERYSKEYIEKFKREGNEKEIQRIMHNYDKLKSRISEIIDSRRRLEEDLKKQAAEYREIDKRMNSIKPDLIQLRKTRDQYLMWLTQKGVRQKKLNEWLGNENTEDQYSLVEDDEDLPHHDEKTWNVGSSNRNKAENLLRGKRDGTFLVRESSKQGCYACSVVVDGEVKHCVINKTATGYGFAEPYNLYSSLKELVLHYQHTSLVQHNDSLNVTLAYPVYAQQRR
T1 sequence (P48736 whole entry): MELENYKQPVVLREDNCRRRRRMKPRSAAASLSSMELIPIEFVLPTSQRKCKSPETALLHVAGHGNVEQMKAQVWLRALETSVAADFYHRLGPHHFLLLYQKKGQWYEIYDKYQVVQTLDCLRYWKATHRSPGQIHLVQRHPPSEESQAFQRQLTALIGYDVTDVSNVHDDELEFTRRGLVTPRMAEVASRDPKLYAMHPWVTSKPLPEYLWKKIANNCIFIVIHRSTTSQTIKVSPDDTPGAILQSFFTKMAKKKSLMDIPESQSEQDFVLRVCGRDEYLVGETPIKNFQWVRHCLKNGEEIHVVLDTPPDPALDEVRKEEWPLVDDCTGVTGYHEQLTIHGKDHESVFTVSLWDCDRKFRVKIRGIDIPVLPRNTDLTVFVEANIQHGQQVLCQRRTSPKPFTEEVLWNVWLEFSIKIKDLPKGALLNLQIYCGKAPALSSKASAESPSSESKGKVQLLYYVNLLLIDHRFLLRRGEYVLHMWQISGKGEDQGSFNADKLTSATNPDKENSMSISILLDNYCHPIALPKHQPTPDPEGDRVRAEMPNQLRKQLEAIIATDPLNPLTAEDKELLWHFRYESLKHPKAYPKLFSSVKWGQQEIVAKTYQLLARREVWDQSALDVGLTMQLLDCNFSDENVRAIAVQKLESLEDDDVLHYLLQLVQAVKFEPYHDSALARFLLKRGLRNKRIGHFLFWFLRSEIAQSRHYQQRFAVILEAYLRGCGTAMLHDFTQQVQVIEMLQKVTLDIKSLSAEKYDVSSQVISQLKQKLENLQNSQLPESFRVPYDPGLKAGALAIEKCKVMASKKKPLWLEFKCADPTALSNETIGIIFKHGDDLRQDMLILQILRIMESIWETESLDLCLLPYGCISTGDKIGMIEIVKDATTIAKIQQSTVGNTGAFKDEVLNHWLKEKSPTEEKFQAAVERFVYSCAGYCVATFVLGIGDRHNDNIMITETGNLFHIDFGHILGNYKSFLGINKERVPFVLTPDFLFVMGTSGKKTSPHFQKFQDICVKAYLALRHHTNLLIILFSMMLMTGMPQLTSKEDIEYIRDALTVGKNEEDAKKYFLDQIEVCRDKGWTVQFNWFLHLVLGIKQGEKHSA

In the case of `C/C=C/C(=O)CCC(=O)N1CCN(Cc2cc3nc(-c4cccc5[nH]ncc45)nc(N4CCOCC4)c3s2)CC1` [II-a-36, (E)-1-(4-((2-(1H-indazol-4-yl)-4-morpholinothieno[3,2-d]pyrimidin-6-yl)methyl)piperazin-1-yl)hept-5-ene-1,4-dione], the IC50 at PI3Kγ (p120γ) is greater than 1000 nM. Also, the EC50 in the experiment on HCT116 cells was 1000 to 10000 nM.
Turning to `CC(C)=CC(=O)CCC(=O)N1CCN(Cc2cc3nc(-c4cccc5[nH]ncc45)nc(N4CCOCC4)c3s2)CC1` [II-a-3, 1-(4-((2-(1H-indazol-4-yl)-4-morpholinothieno[3,2-d]pyrimidin-6-yl)methyl)piperazin-1-yl)-6-methylhept-5-ene-1,4-dione], the GI50 is 10 to 100 nM in the experiment on SKOV3 cells (SKOV3 cells, 96 hours, Cell Titer Glo) and 10 to 100 nM with SKOV3 cells (Table 19, assay not given, classes agree with Table 26). Also, the “covalent modification of PI3Kα” value on PI3Kα [1] is “complete modification; also recorded: covalent modification”. Also, the “Prolonged PD” value in the experiment on PI3 kinase is “Yes”. In addition, the “site on PI3Kα that is covalently modified” value on PI3Kα [2] was “Cys-862; also recorded: peptide ^853NSHTIMQIQCK^863”.

(Values after patent publication US20110230476A1, “PI3 KINASE INHIBITORS AND USES THEREOF” (AVILA THERAPEUTICS, INC., priority 2009, published 2011).)
